Results on 63 compounds are retold here after ChEMBL document CHEMBL1157539, “Thousands of chemical starting points for antimalarial lead identification” (Nature, 2010).

This experiment concerns Plasmodium falciparum. The experiment is described as follows: GSK_TCMDC: Inhibition of Plasmodium falciparum 3D7 in whole erythrocytes, using parasite LDH activity as an index of growth. Format: functional, organism-based. The following applies: Plasmodium falciparum, 3D7.
In turn, `CCN(CC)CCN(Cc1ccc(-c2ccc(C(F)(F)F)cc2)cc1)C(=O)Cn1c(CCc2ccc(F)c(F)c2)cc(=O)c2ccccc21` registered an XC50 of 890 nM.
The value for `Nc1nc(N)c2cc(S(=O)(=O)c3ccc4ccccc4c3)ccc2n1` was 36.8 nM; that for `COc1ccc(-c2ccc(NC(=O)c3ccc(Cl)cc3)cc2)cc1CN(C)CCN(C)C` was 675 nM.
For the compound `Nc1nnc(-c2ccc(Cl)c(Br)c2)c(N)n1`, the XC50 turned out to be 1040 nM.
For `Cc1cccc2nc(-c3cccc(-c4ccc(CN5CCCC5CN)cc4)c3)[nH]c12` (stereo not drawn), the XC50 was found to be 760 nM.
`O=C(Nc1ccc(OC2CCN(Cc3ccccc3)C2)c(Cl)c1)c1ccsc1` (stereo not drawn) showed an XC50 of 735 nM.
In the case of `CN(C)CCN(C)Cc1ccc(-c2ccc3c(Nc4ccc(Cl)cc4F)ccnc3c2)o1`, the XC50 amounted to 360 nM.
`O=C(NCCN1CCCCC1)c1cccc(Nc2nccc(Nc3ccc(Oc4ccccc4)cc3)n2)c1`: the XC50 is 273 nM.
The result for `FC(F)(F)c1ccc2[nH]c(-c3cccc(-c4cccc(CNCCN5CCNCC5)c4)c3)nc2c1` reads 937 nM; that for `Oc1cc2c(cc1CN1CCN(Cc3ccc(Cl)s3)CC1)CCC2`, 616 nM.
`O=C(/C=C/c1cc(F)c(F)cc1F)N1CCC(CN2CCC(c3c[nH]c4ccccc34)CC2)CC1` showed an XC50 of 995 nM.
With `COc1ccc2ncc(F)c(CCN3CCC(NCc4cc(F)c5c(c4)OCCO5)CC3)c2n1`, the XC50 stood at 346 nM.
`Cc1cc(N[C@@H](Cc2ccccc2)C(=O)NCCOc2ccccc2)nc(NCc2ccccc2C)n1`: the XC50 was found to be 711 nM.
`CC[C@H]1CN2CC[C@@H]1C[C@H]2[C@H](O)c1cc(N2CCC(O)CC2)nc2ccc(OC)cc12`: the XC50 was determined as 166 nM.
Compound `COc1ccc(Br)cc1/C=C/C(=O)Nc1ccc(C2CCN(C)CC2)cc1` displayed an XC50 of 502 nM.
Compound `Cc1cccc2nc(-c3cccc(-c4cccc(NC(=O)Nc5cccc(C#N)c5)c4)c3)[nH]c12` registered an XC50 of 104 nM.
`CC(C)(C)c1ccc(CN(C[C@@H](O)CNS(=O)(=O)c2cc(Cl)cc(Cl)c2)C(C)(C)C)cc1` displayed an XC50 of 935 nM.
The result for `COc1ccc(C(c2ccc(N(C)C)cc2)c2ccc(N(C)C)cc2)cc1` reads 64.8 nM.
The compound `N#Cc1c(N)n(CCc2ccc(F)cc2)c2nc3ccccc3nc12` yielded an XC50 of 973 nM.
Take `O=C(Nc1ccc(Cl)cc1)c1ccc(CN2CCCN(CC3CCCCC3)CC2)cc1`: the XC50 was determined as 220 nM.
The result for `CCCC(C)C(=O)N1CCOC(COCc2cccc(C(F)(F)F)c2)(c2ccc(Cl)cc2)C1` (stereo not drawn) reads 403 nM; that for `C[C@H](CNc1ccnc(Nc2ccc3[nH]c(=O)[nH]c3c2)n1)c1ccccc1`, 1310 nM.
In the case of `CO/C(=C\C=C\c1cc2cc(Cl)c(Cl)cc2[nH]1)C(=O)NCCCN1CC(C)N(C)CC1C` (stereo not drawn), the XC50 amounted to 1130 nM.
As to `CC1=C(C(=O)Nc2cc3cn[nH]c3cc2F)C(c2ccc(Cl)c(NS(C)(=O)=O)c2)CC(=O)N1` (stereo not drawn), the XC50 turned out to be 482 nM.
The result for `O=C(NCCCCN1CCC(c2c[nH]c3ccccc23)CC1)c1sc(-c2ccc(C(F)(F)F)cc2)nc1CO` reads 1200 nM; that for `N#CCc1ccc(Nc2nccc(Nc3ccc(Oc4ccccc4)cc3)n2)cc1`, 805 nM.
The result for `COc1ccc(-c2ccc(NC(=O)c3ccc(C#N)cc3)cc2)cc1CN1CCN(C)CC1` reads 721 nM; that for `COc1ccc2nccc([C@@H](O)CN3CCC(NCc4cc5c(Cl)cccc5[nH]4)CC3)c2c1`, 155 nM.
In turn, `O=C(/C=C/c1ccc(Cl)c(Cl)c1)NCCCCCN1CCC(NC(=S)Nc2ccc(F)cc2F)CC1` registered an XC50 of 805 nM.
Consider `Clc1ccc(Nc2nc3nonc3nc2Nc2ccc(Cl)c(Cl)c2)cc1`, for which the XC50 was 645 nM.
`CC(=O)C1(c2ccccc2)CCN(CCC2(c3ccc(Cl)c(Cl)c3)CN(C(=O)C3CCCCC3)CCO2)CC1` (stereo not drawn) returned an XC50 of 314 nM.
With `Cc1cccc2c1NC(=O)/C2=N/NC(=S)N(C)C`, the XC50 stood at 755 nM.
In turn, `CCC(C)NC(=O)Nc1ccc(-c2cccc(-c3nc4cccc(C)c4[nH]3)c2)cc1` (stereo not drawn) came in with an XC50 of 189 nM.
`CCCOc1ccc2ccccc2c1CNCCCCCCNCc1c(OCCC)ccc2ccccc12`: the XC50 is 791 nM.
The value for `O=C(C=Cc1ccc(Cl)c(Cl)c1)NCCCCCN1CCC(CCCNS(=O)(=O)c2ccc(F)cc2)CC1` was 1020 nM; that for `CN1CCN(CCCNc2ncc3c(-c4ccc(NC(=O)Nc5cc(C(F)(F)F)ccc5F)c(F)c4)nn(C)c3n2)CC1` was 859 nM; that for `Oc1ccc(CCNCCCCNCCc2ccc(Cl)cc2)cc1O` was 843 nM.
The result for `COc1c(C2CCN(CCCCNC(=O)c3cc(-c4ccc(Cl)cc4)oc3C)CC2)ccc2c1CCCC2` reads 882 nM.
The value for `COc1ccc(N2C(N)=NC(N)=NC2(C)C)cc1` was 113 nM.
Consider `O=C(Nc1cccc(-c2cccc(-c3ccc(F)cc3)n2)c1)c1ccc([N+](=O)[O-])o1`, for which the XC50 worked out at 361 nM.
Compound `CC(C)C[C@@H](NC(=O)OC(C)(C)C)C(=O)Nc1ccc(Cc2ccc(NC(=O)[C@@H](CC(C)C)NC(=O)OC(C)(C)C)cc2)cc1` gave an XC50 of 207 nM.
`O=C(NCc1ccccc1)c1ncn(CCCN2CCC(N3CCCC3)CC2)c1-c1ccc(Cl)c(Cl)c1`: the XC50 turned out to be 1120 nM.
The compound `O=C(NCC1CCN(Cc2ccc3c(c2)OCCO3)C1)c1cc(-c2ccccc2F)cs1` (stereo not drawn) registered an XC50 of 1020 nM.
On to `O=c1cc(NCCCNCc2ccc(C(F)(F)F)s2)[nH]c2ccccc12`, for which the XC50 worked out at 200 nM.
Regarding `CCOc1cc(C)ccc1C1CCN(CCN2CCC(CNC(=O)c3ccc(-c4ccc(C(F)(F)F)cc4)cc3)CC2)CC1`, the XC50 stood at 701 nM.
With `COc1ccc(CNC2CCCC2)cc1-c1ccc(S(=O)(=O)NCCN2CCCC2)s1`, the XC50 stood at 798 nM.
In turn, `O=C1SC(=Cc2ccc(O)c(O)c2)C(=O)N1c1ccccc1` had an XC50 of 1200 nM.
`CCOc1ccc(CNCCCCCCNCc2ccc(OCC)c3ccccc23)c2ccccc12`: the XC50 stood at 447 nM.
In the case of `CCc1cccc(-c2cc(N)n(C)c3nc(N)nc(=O)c2-3)c1`, the XC50 is 1120 nM.
Take `CCN(CC)C(=O)C1CCCN(C(=O)Nc2cc(C(F)(F)F)cc(C(F)(F)F)c2)C1` (stereo not drawn): the XC50 turned out to be 996 nM.
For the compound `Cc1c(Cc2ccc(C(C)C)cc2)cnc2nc(N)nc(N)c12`, the XC50 was found to be 298 nM.
Turning to `COc1cccc(-c2ccc3c(-c4cccc(S(C)(=O)=O)c4)cnc(N)c3c2)c1`, the XC50 was found to be 874 nM.
The compound `CC(=O)Nc1cccc(Nc2nccc(Nc3ccc(Oc4ccccc4)cc3)n2)c1` showed an XC50 of 745 nM.
In the case of `O=C(Nc1ccc(-c2nc3ccccc3[nH]2)cc1)c1cnc(Cl)c(Cl)c1`, the XC50 was determined as 728 nM.
For `COc1cc2c(cc1C(F)(F)F)N(C(=O)Nc1cc(OC(F)(F)F)cc(-c3cccnc3)c1)CC2`, the XC50 turned out to be 41.5 nM.
`CCCC(=O)c1cnc2c(I)cccc2c1Nc1ccccc1C` displayed an XC50 of 1160 nM.
The value for `CSC1=NC(=Nc2ccccc2C)C2(CCC(C(C)(C)C)CC2)N1c1ccccc1Cl` (stereo not drawn) was 800 nM; that for `CCOc1cc(C(=O)NC2CC(C)(C)NC(C)(C)C2)ccc1-c1nc2cc(Cl)ccc2[nH]1` was 992 nM; that for `CCOc1ccc(-c2nonc2NC(=O)c2cccs2)cc1OCC` was 756 nM.
On to `COc1ccc(-n2cc(CNCCCn3ccnc3)c(-c3cccc(F)c3)n2)cc1`, for which the XC50 came to 1060 nM.
The result for `CN(CCC(O)c1ccc(Cl)c(Cl)c1)CC1CC1C(=O)c1ccccc1` (stereo not drawn) reads 794 nM; that for `CCOc1ccccc1NC(=O)C(Sc1nc(C)cc(C)c1C#N)c1ccccc1` (stereo not drawn), 373 nM; that for `CCC(C)c1ccc(NC(=O)Nc2ccnc3ccccc23)cc1` (stereo not drawn), 625 nM.
